This note sets out measurements from patent US20220096454A1, “CARBOXYLIC ACID DERIVATIVES” (Merck Patent GmbH, priority 2018, published 2022).

One experiment relates to Tankyrases. Conditions: read-out: EC50 [M] TNKS cellular assay; increase of Axin2 level in colon carcinoma cell line DLD1, 24 hours.
The target of a further experiment is T1, TNKS1 (Homo sapiens, UniProt O95271).
T1 construct: GST-tagged Tnks-1 (1023-1327 aa, prepared in-house); made in house
The experiment in a line: TNKS1 activity ELISA (autoparsylation assay). In kind it is biochemical. Conditions: GST-tagged Tnks-1 (1023-1327 aa), 10 μM bio-NAD, 1 hour at 30° C. The procedure: (§1) Description of the TNKS1 and TNKS2 ELISA Assay
(§2) Biochemical activity testing of TNKS 1 and 2: activity ELISA (Autoparsylation assay)
(§3) For analysis of autoparsylation activity of TNKS 1 and 2 an activity ELISA is performed: In the first step GST tagged TNKS is captured on a Glutathione coated plate. Then the activity assay with biotinylated NAD is performed in the absence/presence of the compounds. During the enzymatic reaction GST tagged TNKS transfers biotinylated ADP-ribose to itself from biotinylated NAD as co-substrate. For the detection streptavidin-HRP conjugate is added that binds to the biotinylated TNKS and is thereby captured to the plates. The amount of biotinylated resp. autoparsylated TNKS is detected with a luminescence substrate for HRP. The level of the luminescence signal correlates directly with the amount of autoparsylated TNKS and therefore with activity of TNKS.
(§4) The activity ELISA is performed in 384 well Glutathione coated microtiter plates (Express capture Glutathione coated plate, Biocat, Heidelberg, Germany). The plates are pre-equilibrated with PBS. […] The plates are washed 3 times with PBS-Tween-20. The wells are blocked by incubation at room temperature for 20 minutes with 50 μl blocking buffer (PBS, 0.05% Tween-20, 0.5% BSA). Afterwards the plates are washed 3 times with PBS-Tween-20. […] The reaction is stopped by 3 times washing with PBS-Tween-20. For the detection 50 μl of 20 ng/μl Streptavidin, HRP conjugate (MoBiTec, Göttingen, Germany) in PBS/0.05% Tween-20/0.01% BSA are added and the plates are incubated for 30 minutes at room temperature. After three times washing with PBS-Tween-20 50 μl of SuperSignal ELISA Femto Maximum sensitivity substrate solution (ThermoFisherScientific (Pierce), Bonn, Germany) are added. Following a 1 minute incubation at room temperature luminescence signals are measured with an Envision multimode reader (Perkin Elmer LAS Germany GmbH) at 700 nm. The full value used is the inhibitor-free reaction. […] The inhibitory values (IC50) are determined using either the program Symyx Assay Explorer® or Condosseo® from GeneData.
(In an ELISA, binding on a coated surface is turned into a signal by an enzyme label.)

Another experiment deals with T2, TNKS2 (Homo sapiens, UniProt Q9H2K2).
T2 construct: GST-tagged Tnks-2 (873-1166 aa, prepared in-house); made in house
T2 sequence (Q9H2K2 873-1166): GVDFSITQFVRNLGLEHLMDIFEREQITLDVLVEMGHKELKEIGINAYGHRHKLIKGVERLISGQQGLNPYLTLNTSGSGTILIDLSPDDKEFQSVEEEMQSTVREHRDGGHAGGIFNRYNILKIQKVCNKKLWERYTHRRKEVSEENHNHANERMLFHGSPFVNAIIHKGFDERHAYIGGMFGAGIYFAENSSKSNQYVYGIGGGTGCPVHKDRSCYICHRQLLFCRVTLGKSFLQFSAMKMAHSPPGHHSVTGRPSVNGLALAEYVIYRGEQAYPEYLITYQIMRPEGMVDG
The experiment in a line: TNKS2 activity ELISA (autoparsylation assay). The experiment is classed as biochemical. The note with it: GST-tagged Tnks-2 (873-1166 aa), 10 μM bio-NAD, 1 hour at 30° C. As to the method: as §1, §2, §3, §4

T1 sequence (O95271 1023-1327): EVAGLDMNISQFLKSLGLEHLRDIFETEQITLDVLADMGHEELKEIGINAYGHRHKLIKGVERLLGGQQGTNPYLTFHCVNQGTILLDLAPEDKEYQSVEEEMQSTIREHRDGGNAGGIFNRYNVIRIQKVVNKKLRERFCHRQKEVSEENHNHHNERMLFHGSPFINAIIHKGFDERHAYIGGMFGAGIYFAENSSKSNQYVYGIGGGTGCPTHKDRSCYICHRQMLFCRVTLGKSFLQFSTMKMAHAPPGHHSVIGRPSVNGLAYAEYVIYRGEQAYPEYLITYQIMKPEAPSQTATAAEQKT
Method for Tankyrases: Measurement of Cellular Inhibition of Tankyrase
Cells of the colon carcinoma cell line DLD1 are plated in 96 well plates with 1.5×10^4 cells per well. Next day, cells are treated with a serial dilution of test compound in seven steps as triplicates with a final DMSO concentration of 0.3%. […] The amount of isolated Axin2 protein is determined in a Luminex^200 machine (Luminex Corporation) according to the manufacturer's instruction by counting 100 events per well. […] As controls cells are treated with solvent alone (neutral control) and with a Tankyrase reference inhibitor IWR-2 (3E−06 M) which refers as control for maximum increase of Axin2. For analysis, the obtained data are normalized against the untreated solvent control and fitted for determination of the EC50 values using the Assay Explorer software (Accelrys).

With `CN(C(=O)N1CCC(C(=O)c2ccc3ncn(C)c3c2)CC1)c1ccc(C(=O)O)cc1` [Compound C26, 4-{Methyl-[4-(3-methyl-3H-benzoimidazole-5-carbonyl)-piperidine-1-carbonyl]-amino}-benzoic Acid], in the experiment on Tankyrases, the EC50 (as a rule, the midpoint of the concentration-response curve) was found to be 1.1e-06 M. Besides, the IC50 – broadly, the point on the concentration scale where inhibition reaches its midpoint – against TNKS1 turned out to be 1.5 nM; on TNKS2, 0.62 nM.

For `CCN(C(=O)N1CCC(C(=O)c2ccc3ncn(C)c3c2)CC1)c1cccc(C(=O)O)c1` [Compound C29, 3-{Ethyl-[4-(3-methyl-3H-benzimidazole-5-carbonyl)-piperidine-1-carbonyl]-amino}-benzoic Acid], the EC50 with Tankyrases is 4.75e-06 M. The figures for the IC50 against TNKS1 and at TNKS2 were 3.4 nM and 3 nM, respectively.

With `CN(C(=O)N1CCC(C(=O)c2ccc3c(c2)ncn3C)CC1)c1ccc(C(=O)O)cc1` [Compound C30, 4-{Methyl-[4-(1-methyl-1H-benzimidazole-5-carbonyl)-piperidine-1-carbonyl]-amino}-benzoic Acid], in the experiment on Tankyrases, the EC50 was found to be 6e-06 M. The figures for the IC50 against TNKS1 and at TNKS2 were 17 nM and 10 nM, respectively.

With `CCN(C(=O)N1CCC(C(=O)c2ccc3c(c2)ncn3C)CC1)c1ccc(C(=O)O)cc1` [Compound C31, 4-{Ethyl-[4-(1-methyl-1H-benzimidazole-5-carbonyl)-piperidine-1-carbonyl]-amino}-benzoic Acid], the EC50 in the experiment with Tankyrases was found to be 3.69e-07 M. Also, the IC50 against TNKS1 was found to be 3.5 nM; against TNKS2 it was 2.6 nM.

Regarding `CCN(C(=O)N1CCC(C(=O)c2ccc3c(c2)ncn3C)CC1)c1cccc(C(=O)O)c1` [Compound C33, 3-{Ethyl-[4-(1-methyl-1H-benzimidazole-5-carbonyl)-piperidine-1-carbonyl]-amino}-benzoic Acid], in the experiment on Tankyrases, the EC50 was 3.6e-06 M. The IC50 was determined as 3.3 nM at TNKS1 and 1.5 nM at TNKS2.

For the compound `CN(C(=O)N1CCC(C(=O)c2ccc3nnn(C)c3c2)CC1)c1ccc(C(=O)O)cc1` [Compound C34, 4-{Methyl-[4-(3-methyl-3H-benzotriazole-5-carbonyl)-piperidine-1-carbonyl]-amino}-benzoic Acid], the EC50 in the experiment on Tankyrases came out at 3.2e-06 M. The values for the IC50 at TNKS1 and on TNKS2 were 2.6 nM and 1.1 nM, respectively.

In the case of `CCN(C(=O)N1CCC(C(=O)c2ccc3nnn(C)c3c2)CC1)c1ccc(C(=O)O)cc1` [Compound C35, 4-{Ethyl-[4-(3-methyl-3H-benzotriazole-5-carbonyl)-piperidine-1-carbonyl]-amino}-benzoic Acid], the EC50 in the experiment with Tankyrases turned out to be 3.1e-07 M. The IC50 at TNKS1 was 0.472 nM; at TNKS2 it was 0.192 nM.
